What all share (type): cell-based
One test deals with K penumoniae H 521. The experiment in a line: Antibacterial activity (MIC) against MDR Gram negative strains. Conditions: Table 4; K penumoniae H 521, KPC ESBL, MDR; read-out: MIC. The procedure, abridged: (§1)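 Overnight bacterial cultures, suitably diluted, were inoculated onto agar media containing doubling dilutions of test compound. Plates were incubated 16-20 hours at 35±2° C. in ambient air and scored for growth or no growth following CLSI recommendations. MIC is reported in mcg/ml.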

The test system of a further test is E. Coli B 89. The description is as above. To be noted: Escherichia coli; Table 4; E. Coli B 89, Class C ESBL, MDR; read-out: MIC. The procedure, abridged: as §1
In a further test the test system is P. aeruginosa Ps 21. The description is as above. To be noted: Pseudomonas aeruginosa, PS21; Table 5; P. aeruginosa Ps 21; read-out: MIC. The procedure, abridged:
as §1

The subject of another test is P. aeruginosa ATCC 27853. Described as above. Conditions: Pseudomonas aeruginosa, ATCC27853; Table 5; P. aeruginosa ATCC 27853; read-out: MIC. The procedure, abridged:
as §1

The next test deals with E. Coli W 13352. The description is as above. To be noted: Escherichia coli; Table 4; E. Coli W 13352, Class A ESBL, MDR; read-out: MIC. In a few lines:
as §1

The subject of the next test is E. Coli H 484. The description is as above. To be noted: Escherichia coli; Table 4; E. Coli H 484, Class C ESBL, MDR; read-out: MIC. The procedure, abridged:
as §1

The next test has as its system K penumoniae H 525. The test is described as above. Conditions: Table 4; K penumoniae H 525, KPC ESBL, MDR; read-out: MIC. In a few lines: as §1
The test system of another test is E. Coli W 13351. The test is described as above. To be noted: Escherichia coli; Table 4; E. Coli W 13351, Class A ESBL, MDR; read-out: MIC. In a few lines:
as §1

The next test has as its system K penumoniae H 523. The test is described as above. Conditions: Table 4; K penumoniae H 523, KPC ESBL, MDR; read-out: MIC. In a few lines: as §1
The test system of a further test is E. Coli M 3. Described as above. Conditions: Escherichia coli; Table 5; E. Coli M 3, Class B ESBL, MDR; read-out: MIC. In a few lines: as §1
A further test concerns P. aeruginosa Ps 32. Described as above. To be noted: Pseudomonas aeruginosa, PS32; Table 5; P. aeruginosa Ps 32; read-out: MIC. The procedure, abridged:
as §1

For another test, the system named is K. penumoniae S 48. Described as above. Conditions: Table 5; K. penumoniae S 48, Class B ESBL, MDR; read-out: MIC. The procedure, abridged: as §1
Another test concerns E. Coli M 44. The description is as above. Conditions: Escherichia coli; Table 5; E. Coli M 44, Class B ESBL, MDR; read-out: MIC. The procedure, abridged: as §1
The test system of a further test is E. Coli W 13353. The test is described as above. Conditions: Escherichia coli; Table 4; E. Coli W 13353, Class A ESBL, MDR; read-out: MIC. In a few lines: as §1
For another test, the system named is E. coli M 50. Briefly: Antibacterial activity (MIC), agar dilution per CLSI. To be noted: Escherichia coli, read-out: MIC. In a few lines: as §1
Another test concerns P. vulgaris S-137B. The experiment in a line: Antibacterial activity of Ceftazidime in presence of compounds of the invention (MIC). To be noted: Proteus vulgaris, S137B; Table 6; P. vulgaris S-137B (ESBL type: Class C); Ceftazidime alone or with compound at fixed 4 mcg/ml as named in the composition. On the procedure:
(§2) The biological activity of representative compounds according to the invention against various bacterial strains was investigated. In a typical study, overnight grown bacterial cultures were diluted appropriately and inoculated on the agar media containing doubling dilutions of the test compounds. Observation for growth or no growth was performed after 16-20 hours of incubation at 35±2° C. in ambient air. The overall procedure was performed as per Clinical and Laboratory Standards Institute (CLSI) recommendations (Clinical and Laboratory Standards Institute (CLSI), Performance Standards for Antimicrobial Susceptibility Testing, 20th Informational Supplement, M 100-S20, Volume 30, No. 1, 2010).
(§3) The antibacterial activity of representative compounds according to the invention was also investigated in combination with at least one antibacterial agent using the above study protocol and the results are given Table 6.

Test [1] relates to K. pneumoniae ATCC 700603. The description is as above. Conditions: Klebsiella pneumoniae, ATCC700603; Table 6; K. pneumoniae ATCC 700603 (ESBL type: Class A); Ceftazidime alone or with compound at fixed 4 mcg/ml as named in the composition. On the procedure: as §2, §3
In another test the test system is E. coli 7 MP. Briefly: Antibacterial activity (MIC), agar dilution per CLSI. To be noted: Escherichia coli, Table 3, E. coli 7 MP expressing ESBL, read-out: MIC. The procedure, abridged:
(§4)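 Agar dilution MIC per CLSI: overnight cultures diluted and inoculated onto agar containing doubling dilutions of compound. Growth/no growth read after 16-20 h at 35±2° C in ambient air. Strains express ESBL.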
A general note: In agar dilution the substance is mixed into plates at graded concentrations.

The test system of another test is E. coli NCTC 13351. The description is as above. Conditions: Escherichia coli, NCTC13351, Table 3, E. coli NCTC 13351 expressing ESBL, 16-20 hours, 35±2° C., read-out: MIC. In a few lines:
as §4

Another test relates to A. baumannii J-143. Briefly: Antibacterial activity of sulbactam / Cefepime combinations with a compound of the invention (MIC). Conditions: Acinetobacter baumannii. As for the experimental part: as §2
The subject of a further test is A. baumannii 1460648. The test is described as above. On the procedure:
as §2

In a further test the test system is A. baumannii G-165. The description is as above. Conditions: Acinetobacter baumannii. On the procedure: as §2
For the next test, the system named is A. baumannii S-334. The description is as above. To be noted: Acinetobacter baumannii. On the procedure:
as §2

Setting [2] is: M50, Table 4, E. Coli M 50, Class C ESBL, MDR.
Where [3] appears, read: J143, footnotes of Tables 7 and 8, A. baumannii J-143, substance used alone, read-out: Standalone MIC.
Where [4] appears, read: Acinetobacter baumannii, footnotes of Tables 7 and 8, A. baumannii 1460648, substance used alone, read-out: Standalone MIC.
[5] abbreviates: G165, footnotes of Tables 7 and 8, A. baumannii G-165, substance used alone, read-out: Standalone MIC.
[6] abbreviates: S334, footnotes of Tables 7 and 8, A. baumannii S-334, substance used alone, read-out: Standalone MIC.
Setting [7] is: M50, Table 3, E. coli M 50 expressing ESBL, agar dilution.

Converted amounts (≈) assume the structure as drawn. Where two headings read alike, the source gives them in different places. Some results are limits rather than exact numbers.

What is called MIC is the lowest concentration found to suppress growth.

`CC(C)(O/N=C(\C(=O)N[C@@H]1C(=O)N2C(C(=O)[O-])=C(C[n+]3ccccc3)CS[C@H]12)c1csc(N)n1)C(=O)O` [Ceftazidime, reference compound]: the minimum inhibitory concentration (MIC) in the test with K penumoniae H 521 was above 32 µg/mL; with E. Coli B 89 it was above 32 µg/mL; in the test on P. aeruginosa Ps 21, above 32 µg/mL; with P. aeruginosa ATCC 27853, 1 µg/mL (≈ 1.83 µM); with E. Coli W 13352, above 32 µg/mL; in the test with E. Coli H 484, above 32 µg/mL. In addition, the MIC in the test on K penumoniae H 525 was above 32 µg/mL; in the test with E. Coli W 13351, 32 µg/mL (≈ 58.5 µM); with K penumoniae H 523, above 32 µg/mL; in the test with E. Coli M 3, above 32 µg/mL; in the test with P. aeruginosa Ps 32 it was above 32 µg/mL; in the test with K. penumoniae S 48, above 32 µg/mL. For the same compound, the MIC is above 32 µg/mL in the test with E. Coli M 44; 32 µg/mL (≈ 58.5 µM) in the test with E. Coli W 13353; above 32 µg/mL in the test on E. coli M 50 (setting [2]); above 32 µg/mL in the test with P. vulgaris S-137B; above 32 µg/mL in test [1].

For `O=C(NNC(=O)[C@@H]1CC[C@@H]2CN1C(=O)N2OS(=O)(=O)O)[C@@H]1CCCNC1` [Example 2, trans-sulfuric acid mono-[2-(N′—[(R)-piperidin-3-carbonyl]-hydrazinocarbonyl)-7-oxo-1,6-diaza-bicyclo[3.2.1]oct-6-yl]ester], the minimal inhibitory concentration (MIC) was 0.5 µg/mL (≈ 1.28 µM) in the test on K penumoniae H 521; 0.25 µg/mL (≈ 0.639 µM) in the test with E. Coli B 89; 8 µg/mL (≈ 20.4 µM) with P. aeruginosa Ps 21; 8 µg/mL (≈ 20.4 µM) in the test on P. aeruginosa ATCC 27853; 0.25 µg/mL (≈ 0.639 µM) with E. Coli W 13352; 0.12 µg/mL (≈ 0.307 µM) in the test with E. Coli H 484. The MIC with K penumoniae H 525 came out at 0.5 µg/mL (≈ 1.28 µM); with E. Coli W 13351 it was 0.25 µg/mL (≈ 0.639 µM); in the test with K penumoniae H 523, 1 µg/mL (≈ 2.55 µM); with E. Coli M 3 it was 2 µg/mL (≈ 5.11 µM); in the test on P. aeruginosa Ps 32, 8 µg/mL (≈ 20.4 µM); with K. penumoniae S 48 it was 0.5 µg/mL (≈ 1.28 µM). Also, the MIC was 0.5 µg/mL (≈ 1.28 µM) in the test on E. Coli M 44; 0.12 µg/mL (≈ 0.307 µM) with E. Coli W 13353; 1 µg/mL (≈ 2.55 µM) with E. coli 7 MP; 0.25 µg/mL (≈ 0.639 µM) in the test on E. coli NCTC 13351; above 32 µg/mL in the test with A. baumannii J-143 (setting [3]); above 32 µg/mL in the test on A. baumannii 1460648 (setting [4]). In addition, the MIC with A. baumannii G-165 (setting [5]) is above 32 µg/mL; in the test on A. baumannii S-334 (setting [6]), above 32 µg/mL; in the test on E. coli M 50 (setting [7]), 0.25 µg/mL (≈ 0.639 µM); in the test with E. coli M 50 (setting [2]), 0.25 µg/mL (≈ 0.639 µM).

On to `O=C(NNC(=O)[C@@H]1CC[C@@H]2CN1C(=O)N2OS(=O)(=O)O)[C@@H]1CCNC1` [Example 3, trans-sulfuric acid mono-[2-(N′—[(R)-pyrrolidin-3-carbonyl]-hydrazinocarbonyl)-7-oxo-1,6-diaza-bicyclo[3.2.1]oct-6-yl]ester], for which the MIC is 0.5 µg/mL (≈ 1.32 µM) in the test with K penumoniae H 521; 0.25 µg/mL (≈ 0.662 µM) in the test on E. Coli B 89; 4 µg/mL (≈ 10.6 µM) with P. aeruginosa Ps 21; 2 µg/mL (≈ 5.3 µM) in the test on P. aeruginosa ATCC 27853; 0.5 µg/mL (≈ 1.32 µM) in the test with E. Coli W 13352; 0.5 µg/mL (≈ 1.32 µM) in the test with E. Coli H 484. Besides, the MIC in the test on K penumoniae H 525 came to 0.5 µg/mL (≈ 1.32 µM); with E. Coli W 13351, 0.5 µg/mL (≈ 1.32 µM); in the test on K penumoniae H 523 it was 0.5 µg/mL (≈ 1.32 µM); with E. Coli M 3, 0.5 µg/mL (≈ 1.32 µM); with P. aeruginosa Ps 32 it was 4 µg/mL (≈ 10.6 µM); in the test on K. penumoniae S 48, 0.5 µg/mL (≈ 1.32 µM). Moreover, the MIC in the test on E. Coli M 44 was 0.12 µg/mL (≈ 0.318 µM); in the test on E. Coli W 13353, 0.25 µg/mL (≈ 0.662 µM); in the test on E. coli 7 MP, 1 µg/mL (≈ 2.65 µM); in the test with E. coli NCTC 13351, 0.25 µg/mL (≈ 0.662 µM); with A. baumannii J-143 (setting [3]), above 32 µg/mL; with A. baumannii 1460648 (setting [4]), above 32 µg/mL. Also, the MIC in the test with A. baumannii G-165 (setting [5]) is above 32 µg/mL; in the test on A. baumannii S-334 (setting [6]) it was above 32 µg/mL; in the test on E. coli M 50 (setting [7]) it was 0.25 µg/mL (≈ 0.662 µM); with E. coli M 50 (setting [2]), 0.5 µg/mL (≈ 1.32 µM).

Regarding `CC1(C)[C@H](C(=O)O)N2C(=O)C[C@H]2S1(=O)=O` [Sulbactam, sulbactam], the MIC in the test on A. baumannii J-143 (J143, read-out: MIC of sulbactam) turned out to be 32 µg/mL; with A. baumannii J-143 (J143, read-out: Standalone MIC), 32 µg/mL; in the test on A. baumannii 1460648 (Acinetobacter baumannii, 1460648, read-out: MIC of sulbactam) it was 32 µg/mL; with A. baumannii 1460648 (Acinetobacter baumannii, 1460648, read-out: Standalone MIC), 32 µg/mL; in the test on A. baumannii G-165 (G165, read-out: MIC of sulbactam), 32 µg/mL; in the test with A. baumannii G-165 (G165, read-out: Standalone MIC), 32 µg/mL. The MIC in the test on A. baumannii S-334 (S334, read-out: MIC of sulbactam) came to 32 µg/mL; with A. baumannii S-334 (S334, read-out: Standalone MIC), 32 µg/mL.

These data come from patent publication US9381200B2, “Nitrogen containing compounds” (WOCKHARDT LIMITED, priority 2011, dated 2016).
